# Assay results taken from patent US10450549B2, “Aryloxyphenoxypropionate tolerance in turfrgass species and use of AAD1 as a selectable marker” (Dow AgroSciences, LLC, priority 2004, dated 2019).
# What was measured:
# [1] = test system: T4 Arabidopsis homozygous for AAD1 (v3) (line AAD1.01.315.076); experiment: Foliar-applied auxinic herbicides on homozygous T4 AAD1 (v3) Arabidopsis, % injury 14 DAT; assay type: in vivo, Arabidopsis thaliana; conditions: AAD1.01.315.076.T4 homozygous AAD1 plants
# How it was run: (§1)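 Homozygous T4 AAD1 (v3) Arabidopsis (line AAD1.01.315.076) and a PAT/Cry1F transformed control were grown in pots and track-sprayed foliarly at 187 L/ha with herbicides formulated in 200 mM Hepes pH 7.5. Injury was rated 14 days after treatment, with 3-4 replicates averaged over two experiments.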
# [2] = test system: transformed-control line containing PAT and Cry1F; experiment: Foliar-applied auxinic herbicides on control (PAT/Cry1F, wildtype) Arabidopsis, % injury 14 DAT; assay type: in vivo, Arabidopsis thaliana; conditions: PatCry1f - Control
# How it was run: as §1
# [3] = test system: F1 corn containing AAD1 (v3), PAT, and glyphosate resistance genes; experiment: Greenhouse injury of F1 corn stacked with AAD1 (v3), PAT and glyphosate resistance (2,4-D DMA, glyphosate, glufosinate and combinations); assay type: in vivo; conditions: RR/PAT/AAD1
# Source text: Homozygous T2 AAD1 (v3)/PAT corn plants were crossed with glyphosate resistant corn plants producing F1 seed containing AAD1 (v3), PAT, and glyphosate resistance genes as described in the previous example.
# (§2) F1 seeds were planted individually into 3-inch pots prepared with Metro-Mix® 360 growing medium (Sun Gro Horticulture). […] For the remainder of the study the plants were subirrigated with deionized water.
# (§3) The plants were sprayed with rates of 2,4-D DMA, glyphosate, glufosinate, and various combinations of the three. All applications were formulated in 200 mM Hepes buffer (pH 7.5). In spray applications where glufosinate was present the treatment was formulated with the addition of 2% w/v ammonium sulfate.
# (§4) At 3 and 14 days after treatment (DAT) plants were evaluated. Plants were assigned injury rating with respect to stunting, chlorosis, and necrosis. Plants assigned an injury rating of 90% or above are considered dead.
# [4] = test system: AAD1 (v3) T1 tobacco (events 721(2)-013.010 and 721(3)-008.005); experiment: Segregating AAD1 T1 tobacco response to phenoxy auxin herbicides; assay type: in vivo, Nicotiana tabacum
# Source text: (§5) Two AAD1 (v3) tobacco lines (event 721(2)-013.010 and 721(3)-008.005) were chosen from the T0 generation. The T1 seed was stratified, and sown into selection trays much like that of Arabidopsis (Example 6.4), followed by selective removal of untransformed nulls in this segregating population with 280 g ai/ha glufosinate (PAT selection). Survivors were transferred to individual 3-inch pots in the greenhouse. […] Improved consistency of response is anticipated in T1 plants not having come directly from tissue culture. These plants were compared against wildtype KY 160 tobacco. All plants were sprayed with the use of a track sprayer set at 187 L/ha. […] All applications were formulated in 200 mM Hepes buffer (pH 7.5). Each treatment was replicated 4 times. Plants were evaluated at 3 and 14 days after treatment. Plants were assigned injury rating with respect to stunting, chlorosis, and necrosis. The T1 generation is segregating, so some variable response is expected due to difference in zygosity. (Table 28).
# wildtype KY 160 tobacco = experiment: Wildtype tobacco response to phenoxy auxin herbicides; assay type: in vivo, Nicotiana tabacum; conditions: KY160-Wildtype
# Method: Each treatment was replicated 1-3 times. Injury ratings were recorded 3 and 14 DAT. […] In several events, some initial auxinic herbicide-related epinasty occurred at doses of 800 g ae/ha or less. […] All events suffered some level temporary auxinic damage 3 DAT when treated with 3200 g ae/ha. Some leaf burning also occurred at this high rate due to the acidity of the spray solution. Future trials at high 2,4-D rates were buffered. […] Some events were inconsistent in response among replicates and were deemed “variable” (Table 27).
# as §5
# AAD1 (v3) cotton plant = experiment: 2,4-D resistance of AAD1 (v3) cotton plant; assay type: in vivo; conditions: 560 g ae/ha
# Method: (§6) Two AAD1 (v3) cotton lines have produced plants according to the above protocol that have been sent to the greenhouse. […] The plants were sprayed at 560 g ae/ha 2,4-DMA formulated in 200 mM Hepes buffer (pH 7.5). The plants were evaluated at 3, 7, and 14 days after treatment. Plants were assigned injury ratings with respect to stunting, chlorosis, and necrosis. Plants assigned an injury rating of 90% or above are considered dead. […] By 7 DAT epinasy continued on the wild-type and the new growth shoots began turning brown. It received a rating of 50% at this time. At 14 DAT the AAD1 (v3) plant was still uninjured, whereas the wild-type was severely stunted, and the new growth areas were brown and shriveled. Thus, the wild-type received a rating of 90% at 14 DAT.
# wild-type cotton plants = experiment: 2,4-D injury of wild-type cotton plant; assay type: in vivo; conditions: 560 g ae/ha
# Method: as §6
# Hi II X 5XH751 = experiment: Greenhouse injury of non-transformed Hi II X 5XH751 corn (2,4-D DMA, glyphosate, glufosinate and combinations); assay type: in vivo
# Method: as §2, §3, §4
# AAD1 (v1) = target: T1, AAD1 (v1) (Sphingobium herbicidovorans, UniProt Q8KSC8); experiment: Colorimetric phenol detection assay of AAD1 (v1) activity (purified enzyme or E. coli extract); assay type: biochemical
# T1 construct: made in house; host or cells: E. coli BL-21 Star (DE3), plasmid pDAB3203
# AAD2 (v1) = AAD2 (v1) (Bradyrhizobium diazoefficiens, UniProt Q89UC4); experiment: Colorimetric phenol assay of AAD2 (v1) E. coli extract / partially purified enzyme; assay type: biochemical, Bradyrhizobium japonicum; conditions: E. coli extract
# immature Hi-II embryos = experiment: Dose response using immature maize embryos (% embryogenic callus formation); assay type: cell-based; conditions: up to 30 nM
# Method: Dose response studies were initiated using immature embryos treated with Agrobacterium strain LBA4404 lacking a plasmid as described previously. Once treated, embryos were allowed to co-cultivate for 5 days at 25° C. and were then transferred to selection media containing various levels of R-haloxyfop or R-cyhalofop. Embryos were also transferred to media containing 1 mg/L bialaphos and 100 nM imazethapyr as negative controls. Embryos were scored for % embryogenic callus formation after 2 weeks, and then again after 4 weeks.
# [5] = test system: pDAB3230-transformed Arabidopsis; experiment: Glyphosate tolerance of pDAB3230 (AAD1 (v3)+EPSPS) T1 Arabidopsis; assay type: in vivo, Arabidopsis thaliana; conditions: 7 DAT; EPSPS stacked with AAD1 (v3)
# [6] = test system: non-transformed (NT) ‘Shamrock’ Kentucky bluegrass; experiment: Haloxyfop-R-methyl on non-transformed Kentucky bluegrass controls; assay type: in vivo; conditions: seed grown plants
# Method: The selected T0 plants were sprayed with haloxyfop-R-methyl (Gallant Super®, DOW AGROSCIENCES, INC.) at rates ranging from 140 to 560 g ae/ha. […] This rate would also control susceptible monocot weed species. Measured amounts were placed individually in 25 mL glass vials and dissolved in a 12 mL volume of 1.0% (v/v) Agri-Dex® Crop Oil Concentrate (COC).
# Spray solutions were applied to the plant material with an overhead Mandel™ track sprayer equipped with a 8002E nozzles calibrated to deliver 187 L/ha over an application area of 0.503 square meters (m^2) at a spray height of 18 inches (46 cm) above average plant canopy height. Control plants were sprayed in the same manner with the COC blank.
# The treated plants and control plants were placed in a greenhouse and watered by sub-irrigation to prevent wash-off of the test compounds. At various times after application, the condition of the test plants as compared with that of the untreated plants was determined visually and scored on a scale of 0 to 100 percent, where 0 corresponds to no injury or growth inhibition, and 100 corresponds to complete kill. Regenerated, non-transformed (NT) ‘Shamrock’ Kentucky bluegrass plants and/or seed-derived clonally propagated plants served as haloxyfop sensitive controls.
smiles,measurement,setting,value
"CNC.O=C(O)COc1ccc(Cl)cc1Cl [2,4-DMA]",Ave % Injury 14DAT,[1]; 12.5 g ae/ha foliar,0%
same,Ave % Injury 14DAT,[1]; 25 g ae/ha foliar,0%
same,Ave % Injury 14DAT,[1]; 50 g ae/ha foliar,0%
same,Ave % Injury 14DAT,[1]; 100 g ae/ha foliar,0%
same,Ave % Injury 14DAT,[1]; 200 g ae/ha foliar,0%
same,Ave % Injury 14DAT,[1]; 400 g ae/ha foliar,0%
same,Ave % Injury 14DAT,[1]; 800 g ae/ha foliar,0%
same,Ave % Injury 14DAT,[1]; 1600 g ae/ha foliar,0%
same,Ave % Injury 14DAT,[2]; 12.5 g ae/ha foliar,67%
same,Ave % Injury 14DAT,[2]; 25 g ae/ha foliar,78%
same,Ave % Injury 14DAT,[2]; 50 g ae/ha foliar,93%
same,Ave % Injury 14DAT,[2]; 100 g ae/ha foliar,100%
same,Ave % Injury 14DAT,[2]; 200 g ae/ha foliar,100%
same,Ave % Injury 14DAT,[2]; 400 g ae/ha foliar,100%
same,Ave % Injury 14DAT,[2]; 800 g ae/ha foliar,100%
same,Ave % Injury 14DAT,[2]; 1600 g ae/ha foliar,100%
same,% Injury at 14 DAT Ave,[3]; 560 g ae/ha (1X),0%
same,% Injury at 14 DAT Ave,[3]; 1120 g ae/ha (2X),0%
same,% Injury at 14 DAT Ave,[3]; 2240 g ae/ha (4X),0%
same,Average % Injury of Replicates 14 DAT,"[4]; 560 g ae/ha, 721(2)013.010 (medium tolerance in T0 generation)",5%
same,Average % Injury of Replicates 14 DAT,"[4]; 560 g ae/ha, 721(3)008.005 (high tolerance in T0 generation)",0%
same,Average % Injury of Replicates 14 DAT,"[4]; 1120 g ae/ha, 721(2)013.010 (medium tolerance in T0 generation)",5%
same,Average % Injury of Replicates 14 DAT,"[4]; 1120 g ae/ha, 721(3)008.005 (high tolerance in T0 generation)",2%
same,Average % Injury of Replicates 14 DAT,"[4]; 2240 g ae/ha, 721(2)013.010 (medium tolerance in T0 generation)",5%
same,Average % Injury of Replicates 14 DAT,"[4]; 2240 g ae/ha, 721(3)008.005 (high tolerance in T0 generation)",0%
same,Average % Injury of Replicates 14 DAT,"[4]; 4480 g ae/ha, 721(2)013.010 (medium tolerance in T0 generation)",5%
same,Average % Injury of Replicates 14 DAT,"[4]; 4480 g ae/ha, 721(3)008.005 (high tolerance in T0 generation)",5%
same,Average % Injury of Replicates 14 DAT,wildtype KY 160 tobacco; 560 g ae/ha,75%
same,Average % Injury of Replicates 14 DAT,wildtype KY 160 tobacco; 1120 g ae/ha,80%
same,Average % Injury of Replicates 14 DAT,wildtype KY 160 tobacco; 2240 g ae/ha,90%
same,Average % Injury of Replicates 14 DAT,wildtype KY 160 tobacco; 4480 g ae/ha,95%
same,"injury, AAD1 (v3) cotton",AAD1 (v3) cotton plant; 3 DAT,0%
same,"injury, AAD1 (v3) cotton",AAD1 (v3) cotton plant; 14 DAT,uninjured
same,"injury rating, wild-type cotton",wild-type cotton plants; 3 DAT,15%
same,"injury rating, wild-type cotton",wild-type cotton plants; 7 DAT,50%
same,"injury rating, wild-type cotton",wild-type cotton plants; 14 DAT,90%
same,% Injury at 14 DAT Ave,Hi II X 5XH751; 560 g ae/ha (1X),10%
same,% Injury at 14 DAT Ave,Hi II X 5XH751; 1120 g ae/ha (2X),14%
same,% Injury at 14 DAT Ave,Hi II X 5XH751; 2240 g ae/ha (4X),29%
C[C@@H](Oc1ccc(Oc2ncc(C(F)(F)F)cc2Cl)cc1)C(=O)O [R-haloxyfop],activity of AAD1 (v1) E. coli extract on substrate,"AAD1 (v1); 0.5 mM substrate, 4 μl extract, 15 min","equivalent to that on (R,S)-haloxyfop"
same,kcat,AAD1 (v1); purified AAD1 (v1),0.187 s⁻¹
same,Km,"AAD1 (v1); purified AAD1 (v1), 25 mM MOPS pH 6.8, 25° C., read-out: Km ± SE",120 ± 54 µM
same,Vmax ± SE,"AAD1 (v1); purified AAD1 (v1), Michaelis-Menten fit",0.34 ± 0.04 μmol min^−1 mg^−1 AAD1
same,AAD2 (v1) activity on substrate,AAD2 (v1),unable to act
same,reduction of embryogenic callus formation,immature Hi-II embryos,insufficient reduction of callus formation
O=C(O)CNCP(=O)(O)O [glyphosate],level of glyphosate tolerance (I50) vs. wildtype and transformed control lines,[5],> 14 fold
same,% Injury at 14 DAT Ave,[3]; 840 g ae/ha (1X field rate),0%
same,% Injury at 14 DAT Ave,[3]; 1680 g ae/ha (2X),0%
same,% Injury at 14 DAT Ave,[3]; 3360 g ae/ha (4X),0%
same,% Injury at 14 DAT Ave,Hi II X 5XH751; 840 g ae/ha (1X field rate),98%
same,% Injury at 14 DAT Ave,Hi II X 5XH751; 1680 g ae/ha (2X),100%
same,% Injury at 14 DAT Ave,Hi II X 5XH751; 3360 g ae/ha (4X),100%
COC(=O)[C@@H](C)Oc1ccc(Oc2ncc(C(F)(F)F)cc2Cl)cc1 [haloxyfop-R-methyl],GR90 (herbicide rate which produces 90% injury and/or growth inhibition),[6],approximately 70 g ae/ha
